Test: Test Example 2: identification of decomposition products of compound (I) by mass spectra
Assay type: physicochemical
Conditions: composition with compound (I-A), compound (I-B), dicamba diglycolamine salt, acetic acid and potassium hydroxide, 50° C. for 8 weeks
Experimental: Test Example 2: Identification of Decomposition Product of Compound (I)
Mass spectra were measured for compositions containing the compound (I-A), the compound (I-B), a dicamba diglycolamine salt, acetic acid and potassium hydroxide, which were left to stand in an incubator at 50° C. for 8 weeks.
The decomposition product a is obtained as a result of ring-opening of a uracil ring due to the cleavage of a C—N bond (bond between an N atom at the 3-position and a C atom at the 4-position) included in an imide structure constituting a uracil ring structure of the compound (I-A), and a bond between an N atom at the 1-position and a C atom at the 6-position. The decomposed product b is obtained as a result of the addition of diglycolamine (DGA) to the terminal ethyl ester moiety, in addition to the ring-opening of the uracil ring of the compound (I-A).

Compound	decomposition products confirmed
C#CCN1C(=O)COc2cc(F)c(N3C(=O)C4=C(CCCC4)C3=O)cc21 [compound (I-B)]	decomposition product c
CCOC(=O)COc1ncccc1Oc1cc(-n2c(=O)cc(C(F)(F)F)n(C)c2=O)c(F)cc1Cl [compound (I-A)]	decomposition products a and b

— patent publication US20250176545A1, “LIQUID PESTICIDAL COMPOSITION” (SUMITOMO CHEMICAL COMPANY, LIMITED, priority 2022, published 2025)
